In US20250144067A1, “PERSONALIZED STARVATION THERAPY FOR CANCER” (Faeth Therapeutics, Inc., priority 2021, published 2025):
Where a name gives a salt, the structure may show the parent alone.

How the values were obtained:
[1] = tested on: NCI-H292 lung cancer cells; test: FDA drug screening, complete media vs cholesterol-free media with simvastatin (TABLE 2); type: cell-based, human; conditions: for Cholesterol-free media + simvastatin (0.04 μM) / Complete Media: NCI-H292 cells
[2] = tested on: NCI-H292 lung cancer cells; test: FDA drug screening, complete media vs cholesterol-free media without statin (TABLE 1); type: cell-based, human
[3] = FDA drug library screen, cholesterol-free media with simvastatin 0.04 μM
[4] = FDA drug library screen, complete media
[5] = complete media minus cholesterol-free media + simvastatin, >0 enhanced anti-cancer activity, about 0 neutral, <0 antagonist
[6] = NCI-H292 cells, cholesterol-free media without statin
[7] = complete vs cholesterol-free media, greater than 0 enhanced anti-cancer activity, about 0 neutral, below 0 antagonists
[8] = cholesterol-free media with simvastatin 0.04 μM, FDA drug library screen (TABLE 2)
[9] = complete media, FDA drug library screen (TABLE 2)
[10] = complete media minus cholesterol-free media + simvastatin (0.04 μM), >0 enhanced anti-cancer activity, about 0 neutral, <0 antagonist
[11] = Complete minus Cholesterol-free, >0 enhanced anti-cancer activity, about 0 neutral, <0 antagonist
[12] = Complete minus Cholesterol-free, […]
[13] = NCI-H292 cells in cholesterol-free media without statin
[14] = NCI-H292 cells in complete media
[15] = complete media vs cholesterol-free media + simvastatin (0.04 μM), >0 enhanced anti-cancer activity, about 0 neutral, <0 antagonist
[16] = Complete minus Cholesterol-free, greater than 0 enhanced anti-cancer activity, about 0 neutral, below 0 antagonist
[17] = NCI-H292 cells, FDA drug library screen, cholesterol-free media without statin
[18] = NCI-H292 cells, FDA drug library screen, complete media
[19] = cholesterol-free media with simvastatin 0.04 μM, cell growth value in FDA drug screen
[20] = drug in cholesterol-free media with simvastatin 0.04 μM
[21] = complete media vs cholesterol-free media + simvastatin (0.04 μM), […]
[22] = NCI-H292 cells, cholesterol-free media without statin, FDA drug library screen
[23] = NCI-H292 cells, complete media, FDA drug library screen
[24] = complete media, cell growth value in FDA drug screen
[25] = complete vs cholesterol-free media, >0 enhanced anti-cancer activity, about 0 neutral, <0 antagonist

## CCc1cccc2c3c([nH]c12)C(CC)(CC(=O)O)OCC3 (stereo not shown) [Etodolac]
[1]; [3]
  Cholesterol-free media + simvastatin (0.04 μM): 0.9939
[1]; [4]
  Complete Media: 1.145
[1]; [5]
  Difference: 0.15
[2]; [6]
  Cholesterol-free: 1.251
[2]; NCI-H292 cells, complete media
  Complete: 0.9193
[2]; [7]
  Difference: −0.33

## CC(=O)N1C[C@H](O)C[C@H]1C(=O)O [Oxaceprol]
[1]; [8]
  Cholesterol-free media + simvastatin (0.04 μM): 0.8786
[1]; [9]
  Complete Media: 0.8552
[1]; [10]
  Difference: −0.02
[2]; [11]
  Difference: −0.27
[2]; [6]
  Cholesterol-free: 0.9566
[2]; NCI-H292 cells, complete media
  Complete: 0.6838

## C1CCN2C[C@@H]3C[C@@H](CN4CCCC[C@@H]34)[C@H]2C1 [(−)-Sparteine]
[1]; cholesterol-free media with simvastatin 0.04 μM, […]
  Cholesterol-free media + simvastatin (0.04 μM): 1.054
[1]; complete media, […]
  Complete Media: 1.106
[1]; complete media minus cholesterol-free media + simvastatin, […]
  Difference: 0.05
[2]; [12]
  Difference: −0.60
[2]; [13]
  Cholesterol-free: 1.432
[2]; [14]
  Complete: 0.8366

## COc1ccc(CN(CCN(C)C)c2ccccn2)cc1 [Mepyramine maleate]
[1]; FDA library drug in cholesterol-free media with simvastatin 0.04 μM
  Cholesterol-free media + simvastatin (0.04 μM): 1.226
[1]; FDA library drug in complete media
  Complete Media: 0.8399
[1]; [15]
  Difference: −0.39
[2]; [16]
  Difference: −0.17
[2]; [17]
  Cholesterol-free: 1.527
[2]; [18]
  Complete: 1.356

## C(=C\c1ccccc1)/CN1CCN(C(c2ccccc2)c2ccccc2)CC1 [Cinnarizine]
[1]; [19]
  Cholesterol-free media + simvastatin (0.04 μM): 1.061
[1]; [5]
  Difference: 0.11
[2]; [6]
  Cholesterol-free: 1.344
[2]; NCI-H292 cells, complete media
  Complete: 0.9213
[2]; [7]
  Difference: −0.42

## CCOC(=O)[C@@H](N)Cc1ccc(-c2cc(O[C@H](c3ccc(Cl)cc3-n3ccc(C)n3)C(F)(F)F)nc(N)n2)cc1 [Telotristat ethyl]
[1]; [3]
  Cholesterol-free media + simvastatin (0.04 μM): 1.11
[1]; [4]
  Complete Media: 0.9913
[1]; [15]
  Difference: −0.12
[2]; [6]
  Cholesterol-free: 1.253
[2]; NCI-H292 cells, complete media
  Complete: 0.9282
[2]; [7]
  Difference: −0.32

## CC(C)C[C@H](N)C(=O)O [L-Leucine]
[1]; [20]
  Cholesterol-free media + simvastatin (0.04 μM): 1.064
[1]; drug in complete media
  Complete Media: 0.8826
[1]; [21]
  Difference: −0.18
[2]; [22]
  Cholesterol-free: 1.354
[2]; [23]
  Complete: 1.837
[2]; complete vs cholesterol-free media, […]
  Difference: 0.48

## CC(C)C(Br)C(=O)NC(N)=O (stereo not shown) [Bromisoval]
[1]; [20]
  Cholesterol-free media + simvastatin (0.04 μM): 1.086
[1]; drug in complete media
  Complete Media: 0.9233
[1]; [21]
  Difference: −0.16
[2]; [12]
  Difference: −0.47
[2]; [13]
  Cholesterol-free: 1.334
[2]; [14]
  Complete: 0.8605

## CCC(=O)O[C@]1(C(=O)CCl)[C@@H](C)C[C@H]2[C@@H]3CCC4=CC(=O)C=C[C@]4(C)[C@@]3(F)[C@@H](O)C[C@@]21C [Clobetasol propionate]
[1]; [19]
  Cholesterol-free media + simvastatin (0.04 μM): 0.7256
[1]; [24]
  Complete Media: 0.7474
[1]; [5]
  Difference: 0.02
[2]; [11]
  Difference: −0.20
[2]; [6]
  Cholesterol-free: 1.481
[2]; NCI-H292 cells, complete media
  Complete: 1.28

## COc1ccc2c(c1OC)C(=O)O[C@@H]2[C@H]1c2c(cc3c(c2OC)OCO3)CCN1C [Noscapine]
[1]; [3]
  Cholesterol-free media + simvastatin (0.04 μM): 0.7586
[1]; [4]
  Complete Media: 1.21
[1]; [5]
  Difference: 0.45
[2]; [11]
  Difference: −0.20
[2]; [6]
  Cholesterol-free: 1.288
[2]; NCI-H292 cells, complete media
  Complete: 1.088

## CC(COc1ccccc1)N(CCCl)Cc1ccccc1 (stereo not shown) [Phenoxybenzamine (hydrochloride)]
[1]; [8]
  Cholesterol-free media + simvastatin (0.04 μM): 0.9012
[1]; [9]
  Complete Media: 0.8799
[1]; complete media minus cholesterol-free media + simvastatin (0.04 μM), […]
  Difference: −0.02
[2]; [12]
  Difference: −0.20
[2]; [6]
  Cholesterol-free: 0.9421
[2]; NCI-H292 cells, complete media
  Complete: 0.7375

## Verteporfin
[1]; [3]
  Cholesterol-free media + simvastatin (0.04 μM): 0.616
[1]; [4]
  Complete Media: 0.9298
[1]; [5]
  Difference: 0.31
[2]; [11]
  Difference: −0.04
[2]; [22]
  Cholesterol-free: 0.26
[2]; [23]
  Complete: 0.2188

## c1ccc(Cc2nc3ccccc3[nH]2)cc1 [Bendazol]
[1]; [3]
  Cholesterol-free media + simvastatin (0.04 μM): 1.208
[1]; [4]
  Complete Media: 1.472
[1]; [5]
  Difference: 0.26
[2]; [22]
  Cholesterol-free: 1.234
[2]; [23]
  Complete: 1.354
[2]; [25]
  Difference: 0.12

## OC[C@@H](O)[C@@H](O[C@@H]1O[C@H](CO)[C@H](O)[C@H](O)[C@H]1O)[C@H](O)[C@@H](O)CO [Lactitol (monohydrate)]
[1]; [19]
  Cholesterol-free media + simvastatin (0.04 μM): 1.183
[1]; [24]
  Complete Media: 1.215
[1]; [5]
  Difference: 0.03
[2]; [16]
  Difference: −0.17
[2]; [17]
  Cholesterol-free: 1.059
[2]; [18]
  Complete: 0.8908

## Cc1ncc([N+](=O)[O-])n1CC(C)O (stereo not shown) [Secnidazole]
[1]; [8]
  Cholesterol-free media + simvastatin (0.04 μM): 1.474
[1]; [9]
  Complete Media: 1.409
[1]; [10]
  Difference: −0.07
[2]; [22]
  Cholesterol-free: 1.105
[2]; [23]
  Complete: 1.528
[2]; [25]
  Difference: 0.42

## Clebopride (malate)
[1]; [8]
  Cholesterol-free media + simvastatin (0.04 μM): 0.7532
[1]; [9]
  Complete Media: 0.7281
[1]; [10]
  Difference: −0.03
[2]; [11]
  Difference: −0.29
[2]; [6]
  Cholesterol-free: 0.9703
[2]; NCI-H292 cells, complete media
  Complete: 0.6807

## CN(C/C=C/C#CC(C)(C)C)Cc1cccc2ccccc12 [Terbinafine]
[1]; [3]
  Cholesterol-free media + simvastatin (0.04 μM): 1.066
[1]; [4]
  Complete Media: 0.9483
[1]; [15]
  Difference: −0.12
[2]; [22]
  Cholesterol-free: 1.229
[2]; [23]
  Complete: 1.421
[2]; [25]
  Difference: 0.19

## Cc1cc(-c2ccccc2)nnc1NCCN1CCOCC1 [Minaprine (dihydrochloride)]
[1]; [3]
  Cholesterol-free media + simvastatin (0.04 μM): 0.8439
[1]; [4]
  Complete Media: 1.278
[1]; [5]
  Difference: 0.43
[2]; [6]
  Cholesterol-free: 1.341
[2]; NCI-H292 cells, complete media
  Complete: 0.9021
[2]; [7]
  Difference: −0.44

## C#C[C@]1(O)CC[C@H]2[C@@H]3CCC4=CC(=O)CC[C@@H]4[C@H]3CC[C@@]21C [Norethindrone]
[1]; [3]
  Cholesterol-free media + simvastatin (0.04 μM): 0.8746
[1]; [4]
  Complete Media: 1.458
[1]; [5]
  Difference: 0.58
[2]; [22]
  Cholesterol-free: 1.186
[2]; [23]
  Complete: 1.412
[2]; [25]
  Difference: 0.23

## (−)-Limonene
[1]; [4]
  Complete Media: 1.422
[1]; [5]
  Difference: 0.38
[2]; [22]
  Cholesterol-free: 1.299
[2]; [23]
  Complete: 1.515
[2]; [25]
  Difference: 0.22

## CC[C@@H]([C@H](C)O)n1ncn(-c2ccc(N3CCN(c4ccc(OC[C@@H]5CO[C@@](Cn6cncn6)(c6ccc(F)cc6F)C5)cc4)CC3)cc2)c1=O [Posaconazole]
[1]; [3]
  Cholesterol-free media + simvastatin (0.04 μM): 1.5
[1]; [4]
  Complete Media: 1.904
[1]; [5]
  Difference: 0.40
[2]; Complete minus Cholesterol-free, greater than 0 enhanced anti-cancer activity, about 0 neutral, below 0 antagonists
  Difference: −0.60
[2]; [13]
  Cholesterol-free: 1.481
[2]; [14]
  Complete: 0.8852

## Nc1nc(O)c2ncn(COC(CO)CO)c2n1 [Ganciclovir (sodium)]
[1]; [8]
  Cholesterol-free media + simvastatin (0.04 μM): 1.423
[1]; [9]
  Complete Media: 1.395
[1]; [10]
  Difference: −0.03
[2]; [11]
  Difference: −0.19
[2]; [6]
  Cholesterol-free: 0.9099
[2]; NCI-H292 cells, complete media
  Complete: 0.7218

## COC(=O)N[C@H](C(=O)N1CCC[C@H]1c1nc(-c2ccc(-c3ccc(-c4c[nH]c([C@@H]5CCCN5C(=O)[C@@H](NC(=O)OC)C(C)C)n4)cc3)cc2)c[nH]1)C(C)C [Daclatasvir]
[1]; [3]
  Cholesterol-free media + simvastatin (0.04 μM): 0.9463
[1]; [4]
  Complete Media: 1.136
[1]; [5]
  Difference: 0.19
[2]; [11]
  Difference: 0.04
[2]; [22]
  Cholesterol-free: 0.703
[2]; [23]
  Complete: 0.7437
